Results as given in patent US7456225B1, “Liver protection compounds of the cyclohexenone type from Antrodia camphorata” (Golden Biotechnology Corporation, priority 2007, dated 2008).
Marks after values point to notes of the source that are not given here.

Experiments:
Type in all cases: in vivo, Sprague-Dawley (SD) rats
[1] = system: CCl4-induced liver injury in rats; test: Pathological changes of the liver surface observed with naked eyes; details: CCl4-treated rats, 8 weeks
Method: The animal model was performed with five-week-old Sprague-Dawley (SD) rats purchased from BioLasco Taiwan Co., Ltd. Healthy rats weighing 220-270 g were chosen for experiment after observing for 2 weeks in the laboratory animal room. The rats were randomly divided into 6 groups (12 rats/group): normal (gp. A); control groups including model control (gp. B) and positive control (gp. C, animals receiving silymarin); treatment groups including animals receiving 300 mg/kg of cyclohexenone (gp. D), 1000 mg/kg of cyclohexenone (gp. E), and 3000 mg/kg of cyclohexenone (gp. F), as indicated in Table 1. Only normal group was not poisoned with CCl4. The body weights were recorded to calculate the dosage. […] It helps to remove toxins from liver cells by either neutralizing the toxicity of toxic compounds or competing with the binding sites in liver. It is a potent antioxidant, protects the liver from free radicals. It has been widely studied for treating various types of liver injury in animals and clinical trials. […]
The pathological changes of the liver surface were examined with naked eyes when the liver was taken out from rats, and then tissue sections were made. […] The pathological changes of liver injury were evaluated under light microscope (Opticphot-2, Nikon, Tokyo, Japan) after stained with the abovementioned solution. […]

[2] = system: CCl4 induced liver injury in rats; test: Histological evaluation of liver injury (H&E, Jonker et al. 0-4 scale); details: for Liver injury score: 0-4 scale, CCl4-treated rats, 8 weeks; for Liver injury +, counts of pathological rats: level 1 = +, slight; for Liver injury ++, counts of pathological rats: level 2 = ++, mild; for Liver injury +++, counts of pathological rats: level 3 = +++, moderate; for Liver injury ++++, counts of pathological rats: level 4 = ++++, remarkable
Method: (§1) The animal model was performed with five-week-old Sprague-Dawley (SD) rats purchased from BioLasco Taiwan Co., Ltd. Healthy rats weighing 220-270 g were chosen for experiment after observing for 2 weeks in the laboratory animal room. The rats were randomly divided into 6 groups (12 rats/group): normal (gp. A); control groups including model control (gp. B) and positive control (gp. C, animals receiving silymarin); treatment groups including animals receiving 300 mg/kg of cyclohexenone (gp. D), 1000 mg/kg of cyclohexenone (gp. E), and 3000 mg/kg of cyclohexenone (gp. F), as indicated in Table 1. Only normal group was not poisoned with CCl4. The body weights were recorded to calculate the dosage. […] It helps to remove toxins from liver cells by either neutralizing the toxicity of toxic compounds or competing with the binding sites in liver. It is a potent antioxidant, protects the liver from free radicals. It has been widely studied for treating various types of liver injury in animals and clinical trials. The beneficial effects on liver protection have made silymarin a good medicine for liver diseases and a drug in positive control group for the animal model of liver injury.
Rats in normal group (group A) were fed with corn oil (Sigma chemical co.) by means of stomach tubes. Carbon tetrachloride (Shimakyu, Osaka, Japan) was administered to groups B to F via stomach tubes twice weekly (every Tuesday and Thursday afternoon) for 8 weeks, at a dose of 2 ml/kg of body weight, diluted with corn oil. Silymarin was prepared with saline in an amount of 200 mg/kg of body weight and was fed to rats of group C via a stomach tube. Cyclohexenone prepared from example 1 was mixed with saline, and fed in the amounts of 300 mg/kg, 1000 mg/kg and 3000 mg/kg of body weight to rats of group D to F via stomach tubes. The total feeding volume was estimated in the ratio of 10 ml/kg of body weight to groups C to F five days a week (every morning) for 8 weeks. The body weights of rats and the amounts of food intake in rats for each group were shown in FIG. 1 and FIG. 2, respectively.
The pathological changes of the liver surface were examined with naked eyes when the liver was taken out from rats, and then tissue sections were made. Half of each liver lobe was stored at −80° C. for antioxidant enzyme assay to follow up. The rest of liver tissues were fixed in 10% formalin for one week, embedded in paraffin cut into 2 μm sections, and stained with Hematoxyline-eosin (H&E) to visualize the lipid deposition, inflammation, cell necrosis and fibrosis, or stained with Masson's trichromic solution to visualize extracellular matrix and collagen fibers for liver fibrosis development. The pathological changes of liver injury were evaluated under light microscope (Opticphot-2, Nikon, Tokyo, Japan) after stained with the abovementioned solution.
Assessment of pathologic score in the chronic liver damage, the extent of inflammation, vacuolar degeneration, liver cell necrosis and bile duct proliferation were graded semi-quantitatively on a “0” to “4” scale (level 0=−, none, level 1=+, slight, level 2=++, mild, level 3=+++, moderate, and level 4=++++, remarkable, according to Jonker et al. (Jonker, A. M., Dijkhuis, F. W., Boes, A., Hardonk, M. J. and Grond J. 1992. Immunohistochemical study of extracellular matrix in acute galactosamine hepatitis in rats. Hepatology. 15(3):423-31).

[3] = Body weights of rats in CCl4 liver injury model; details: CCl4-treated rats, stomach tube, 8th week
Method: as §1, with “injury. Rats in normal group (group A) were fed with corn oil (Sigma chemical co.) by means of stomach tubes. Carbon tetrachloride (Shimakyu, Osaka, Japan) was administered to groups B to F via stomach tubes twice weekly (every Tuesday and Thursday afternoon) for 8 weeks, at a dose of 2 ml/kg of body weight, diluted with corn oil. Silymarin was prepared with saline in an amount of 200 mg/kg of body weight and was fed to rats of group C via a stomach tube. Cyclohexenone prepared from example 1 was mixed with saline, and fed in the amounts of 300 mg/kg, 1000 mg/kg and 3000 mg/kg of body weight to rats of group D to F via stomach tubes. The total feeding volume was estimated in the ratio of 10 ml/kg of body weight to groups C to F five days a week (every morning) for 8 weeks. The body weights of rats and the amounts of food intake in rats for each group were shown in FIG. 1 and FIG. 2, respectively. […]” for “injury.”

SMILES: COC1=C(OC)C(O)C(C/C=C(\C)CC/C=C(\C)CCC=C(C)C)C(C)C1=O (stereo not shown) [Cyclohexenone from Antrodia camphorata, 4-hydroxy-2,3-dimethoxy-6-methyl-5(3,7,11-trimethyl-dodeca-2,6,10-trienyl)-cyclohex-2-enone]
- swelling and pathological conditions of liver surface (naked eyes) ([1]; cyclohexenone 3000 mg/kg): slightest condition in swelling and pathological conditions
- extents of liver pathological changes (liver surface, naked eyes) ([1]; various amounts of cyclohexenone (300, 1000, 3000 mg/kg), vs model group): significantly weaker than that of model group
- Liver injury score ([2]; cyclohexenone 300 mg/kg): 1.8*^a
- Liver injury score ([2]; cyclohexenone 300 mg/kg, listed as cyclohexenone from Antrodia camphorata): 1.8
- Liver injury score ([2]; cyclohexenone 1000 mg/kg): 2.0*^a
- Liver injury score ([2]; cyclohexenone 1000 mg/kg, listed as cyclohexenone from Antrodia camphorata): 2.0
- Liver injury score ([2]; cyclohexenone 3000 mg/kg): 2.3*^a
- effects in liver injury and liver fibrosis compared with silymarin ([2]; CCl4 treated rats fed with different amount of cyclohexenone (300, 1000, 3000 mg/kg)): better effects than silymarin
- Liver injury +, counts of pathological rats ([2]; cyclohexenone 300 mg/kg): 5
- Liver injury +, counts of pathological rats ([2]; cyclohexenone 1000 mg/kg): 3
- Liver injury +, counts of pathological rats ([2]; cyclohexenone 3000 mg/kg): 2
- Liver injury ++, counts of pathological rats ([2]; cyclohexenone 300 mg/kg): 6
- Liver injury ++, counts of pathological rats ([2]; cyclohexenone 1000 mg/kg): 6
- Liver injury ++, counts of pathological rats ([2]; cyclohexenone 3000 mg/kg): 6
- Liver injury +++, counts of pathological rats ([2]; cyclohexenone 1000 mg/kg): 1
- Liver injury +++, counts of pathological rats ([2]; cyclohexenone 3000 mg/kg): 1
- Liver injury ++++, counts of pathological rats ([2]; cyclohexenone 300 mg/kg): 1
- Liver injury ++++, counts of pathological rats ([2]; cyclohexenone 1000 mg/kg): 1
- Liver injury ++++, counts of pathological rats ([2]; cyclohexenone 3000 mg/kg): 2
- body weight ([3]; cyclohexenone 300 mg/kg): 386.6 g
- body weight ([3]; cyclohexenone 1000 mg/kg): 365.1 g
- body weight ([3]; cyclohexenone 3000 mg/kg): 355.0 g
